In experiment [1] the target is T1, Mitogen-activated protein kinase 13 (Homo sapiens) (UniProt O15264).
T1 sequence (whole entry): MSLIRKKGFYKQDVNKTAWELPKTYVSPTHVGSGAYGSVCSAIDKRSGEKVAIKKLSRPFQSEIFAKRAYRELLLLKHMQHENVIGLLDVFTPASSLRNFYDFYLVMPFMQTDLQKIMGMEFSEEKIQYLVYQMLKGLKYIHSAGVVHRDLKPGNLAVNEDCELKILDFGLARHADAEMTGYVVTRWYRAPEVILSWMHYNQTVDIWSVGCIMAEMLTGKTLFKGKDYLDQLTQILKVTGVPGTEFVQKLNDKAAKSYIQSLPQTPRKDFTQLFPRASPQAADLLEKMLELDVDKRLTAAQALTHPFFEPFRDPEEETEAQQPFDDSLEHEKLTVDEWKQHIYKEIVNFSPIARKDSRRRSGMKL
Description: Inhibition of His-tagged human SAPK4/p38delta expressed in Escherichia coli at 20 uM. The conditions noted are these: values are per cent of control.

Experiment [2] has as its target T2, Casein kinase II (Homo sapiens) (UniProt P67870+P68400+P19784). In words: Inhibition of His-tagged human CK2 expressed in Sf9 cells at 20 uM. As to conditions: values are per cent of control.
For experiment [3], the target named is Serine/threonine-protein kinase N2 (Homo sapiens) (UniProt Q16513). The conditions noted are these: HEK293, 20 uM.
Chain of Serine/threonine-protein kinase N2 (Homo sapiens) (Q16513 whole entry, looked up): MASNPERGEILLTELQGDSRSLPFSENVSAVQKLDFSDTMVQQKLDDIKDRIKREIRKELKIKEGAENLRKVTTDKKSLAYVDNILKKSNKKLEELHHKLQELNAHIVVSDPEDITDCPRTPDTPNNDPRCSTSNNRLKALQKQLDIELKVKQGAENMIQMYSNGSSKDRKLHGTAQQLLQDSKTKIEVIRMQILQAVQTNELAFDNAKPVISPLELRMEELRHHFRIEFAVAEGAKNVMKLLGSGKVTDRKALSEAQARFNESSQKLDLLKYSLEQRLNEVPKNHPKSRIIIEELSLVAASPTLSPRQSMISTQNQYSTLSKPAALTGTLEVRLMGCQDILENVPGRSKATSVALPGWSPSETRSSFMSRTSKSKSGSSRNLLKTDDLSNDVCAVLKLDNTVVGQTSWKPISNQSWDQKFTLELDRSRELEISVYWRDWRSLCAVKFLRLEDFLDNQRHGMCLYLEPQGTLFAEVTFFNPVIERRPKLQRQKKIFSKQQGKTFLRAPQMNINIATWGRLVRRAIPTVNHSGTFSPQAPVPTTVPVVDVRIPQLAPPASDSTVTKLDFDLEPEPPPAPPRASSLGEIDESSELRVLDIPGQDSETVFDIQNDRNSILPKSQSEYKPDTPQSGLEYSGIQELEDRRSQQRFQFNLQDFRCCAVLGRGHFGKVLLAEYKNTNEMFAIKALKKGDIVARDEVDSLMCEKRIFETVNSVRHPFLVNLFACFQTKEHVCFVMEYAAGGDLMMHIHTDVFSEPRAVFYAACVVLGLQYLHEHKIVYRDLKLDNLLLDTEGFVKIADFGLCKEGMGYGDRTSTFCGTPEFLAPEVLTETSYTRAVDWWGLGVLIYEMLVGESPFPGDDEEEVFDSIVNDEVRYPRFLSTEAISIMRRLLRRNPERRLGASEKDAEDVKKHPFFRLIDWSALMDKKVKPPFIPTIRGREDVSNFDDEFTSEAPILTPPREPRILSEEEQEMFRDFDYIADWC
Description: Inhibition of His-tagged human PRK2 expressed in HEK293 cells at 20 uM
The species named for experiment [4] is Rattus norvegicus. Description: Inhibition of rat liver AMPK at 20 uM; values are per cent of control.
For experiment [5], the species on record is Bos taurus. In words: Inhibition of bovine heart PKA at 20 uM; values are per cent of control.
The species named for experiment [6] is Oryctolagus cuniculus. Description: Inhibition of PHK from rabbit skeletal muscle at 20 uM; values are per cent of control. As to conditions: Muscle tissue.
Experiment [7] addresses T3, Ribosomal protein S6 kinase alpha-5 (Homo sapiens, UniProt O75582). In words: Inhibition of His-tagged human MSK1 expressed in Sf9 cells at 20 uM; values are per cent of control.
Experiment [8] has as its target T4, Ribosomal protein S6 kinase beta-1 (Homo sapiens, UniProt P23443). Description: Inhibition of His-tagged human S6K1 expressed in Escherichia coli at 20 uM; values are per cent of control.
Experiment [9] concerns the target T5, Serine/threonine-protein kinase Chk1 (Homo sapiens) (UniProt O14757).
T5 sequence (whole entry): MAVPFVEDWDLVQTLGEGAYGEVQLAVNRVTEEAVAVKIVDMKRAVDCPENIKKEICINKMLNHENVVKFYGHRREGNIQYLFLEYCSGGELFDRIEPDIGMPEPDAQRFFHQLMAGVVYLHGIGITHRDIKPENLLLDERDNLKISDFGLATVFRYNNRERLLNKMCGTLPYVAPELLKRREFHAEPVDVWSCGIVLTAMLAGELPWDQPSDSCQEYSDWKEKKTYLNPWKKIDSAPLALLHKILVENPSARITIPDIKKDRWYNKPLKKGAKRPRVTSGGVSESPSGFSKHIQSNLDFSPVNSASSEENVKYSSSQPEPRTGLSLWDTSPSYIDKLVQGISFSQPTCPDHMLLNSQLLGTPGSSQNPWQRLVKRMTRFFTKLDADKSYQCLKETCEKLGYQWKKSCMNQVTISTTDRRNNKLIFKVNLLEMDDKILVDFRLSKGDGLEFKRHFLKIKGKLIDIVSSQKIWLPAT
In words: Inhibition of His-tagged human CHK1 expressed in Escherichia coli at 20 uM; values are per cent of control.

Experiment [10] deals with Mitogen-activated protein kinase 11 (Homo sapiens) (UniProt Q15759). In words: Inhibition of His-tagged human SAPK2b/p38b2 expressed in Escherichia coli at 20 uM; values are per cent of control.
Chain of Mitogen-activated protein kinase 11 (Homo sapiens) (Q15759 whole entry): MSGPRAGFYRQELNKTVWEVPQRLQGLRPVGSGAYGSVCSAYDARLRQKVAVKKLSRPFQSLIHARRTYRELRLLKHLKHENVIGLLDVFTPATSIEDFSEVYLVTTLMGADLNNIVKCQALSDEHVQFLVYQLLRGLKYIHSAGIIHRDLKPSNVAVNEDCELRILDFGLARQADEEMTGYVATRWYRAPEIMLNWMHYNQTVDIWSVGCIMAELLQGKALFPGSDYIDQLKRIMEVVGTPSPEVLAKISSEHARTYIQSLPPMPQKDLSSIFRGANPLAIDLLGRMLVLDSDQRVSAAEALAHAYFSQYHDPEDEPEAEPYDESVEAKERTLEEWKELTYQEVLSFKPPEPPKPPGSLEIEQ
Experiment [11] has as its target Mitogen-activated protein kinase 8 (Homo sapiens) (UniProt P45983). In words: Inhibition of His-tagged human JNK1a1/SAPK1c expressed in Escherichia coli at 20 uM; values are per cent of control.
Experiment [12] has as its target [Pyruvate dehydrogenase (acetyl-transferring)] kinase isozyme 1, mitochondrial (Homo sapiens) (UniProt Q15118). Description: Inhibition of His-tagged human PDK1 expressed in Sf21 cells at 50 uM. The conditions noted are these: values are per cent of control.
In experiment [13] the target is Rho-associated protein kinase 2 (Rattus norvegicus) (UniProt Q62868). In words: Inhibition of rat ROCK2 expressed in Sf9 cells at 50 uM. As to conditions: values are per cent of control.
The species entered for experiment [14] is Rattus norvegicus. In words: Inhibition of rat liver AMPK at 50 uM; values are per cent of control.
The species entered for experiment [15] is Bos taurus. In words: Inhibition of bovine heart PKA at 50 uM; values are per cent of control.
The species named for experiment [16] is Oryctolagus cuniculus. In words: Inhibition of PHK from rabbit skeletal muscle at 50 uM; values are per cent of control. The conditions noted are these: Muscle tissue.
The species entered for experiment [17] is Oryctolagus cuniculus. In words: Inhibition of MAPKAPK1b from rabbit skeletal muscle at 50 uM; values are per cent of control. The conditions noted are these: Muscle tissue.
The target of experiment [18] is RAC-alpha serine/threonine-protein kinase (Homo sapiens) (UniProt P31749). Description: Inhibition of human PKBalpha expressed in SF9 cells at 50 uM; values are per cent of control.
Chain of RAC-alpha serine/threonine-protein kinase (Homo sapiens) (P31749 whole entry): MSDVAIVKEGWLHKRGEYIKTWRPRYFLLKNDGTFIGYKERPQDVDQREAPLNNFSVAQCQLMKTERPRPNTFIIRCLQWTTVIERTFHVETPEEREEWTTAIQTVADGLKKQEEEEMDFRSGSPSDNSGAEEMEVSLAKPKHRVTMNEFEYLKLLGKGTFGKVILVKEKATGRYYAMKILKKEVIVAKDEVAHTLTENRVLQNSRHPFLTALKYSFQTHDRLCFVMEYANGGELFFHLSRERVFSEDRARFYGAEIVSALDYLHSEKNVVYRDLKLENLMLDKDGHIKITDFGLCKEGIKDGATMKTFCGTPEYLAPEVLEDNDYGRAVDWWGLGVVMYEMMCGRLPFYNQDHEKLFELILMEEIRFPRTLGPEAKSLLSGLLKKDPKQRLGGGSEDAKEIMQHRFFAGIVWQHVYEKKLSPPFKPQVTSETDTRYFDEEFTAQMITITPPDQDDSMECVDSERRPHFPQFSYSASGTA
The species named for experiment [19] is Oryctolagus cuniculus. In words: Inhibition of rabbit MKK1 expressed in Escherichia coli at 50 uM; values are per cent of control.
In experiment [20] the target is T6, Serine/threonine-protein kinase Sgk1 (Homo sapiens) (UniProt O00141).
T6 sequence (whole entry): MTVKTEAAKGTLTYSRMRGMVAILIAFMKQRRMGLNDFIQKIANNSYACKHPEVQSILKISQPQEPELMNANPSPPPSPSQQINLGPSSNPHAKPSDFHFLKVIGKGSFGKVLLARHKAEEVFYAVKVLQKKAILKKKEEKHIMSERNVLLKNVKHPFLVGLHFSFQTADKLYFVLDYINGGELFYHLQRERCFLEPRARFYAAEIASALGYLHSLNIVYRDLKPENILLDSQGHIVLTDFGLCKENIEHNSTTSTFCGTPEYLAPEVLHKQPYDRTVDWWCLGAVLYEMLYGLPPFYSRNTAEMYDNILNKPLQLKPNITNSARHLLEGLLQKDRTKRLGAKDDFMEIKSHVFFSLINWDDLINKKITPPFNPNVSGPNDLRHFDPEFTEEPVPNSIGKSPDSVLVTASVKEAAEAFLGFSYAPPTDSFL
In words: Inhibition of His-tagged human SGK expressed in Sf9 cells at 50 uM; values are per cent of control.

The target of experiment [21] is T2, Casein kinase II (Homo sapiens). Description: Inhibition of His-tagged human CK2 expressed in Sf9 cells at 50 uM; values are per cent of control.
For experiment [22], the target named is T3, Ribosomal protein S6 kinase alpha-5. Description: Inhibition of His-tagged human MSK1 expressed in Sf9 cells at 50 uM; values are per cent of control.
Experiment [23] has as its target Glycogen synthase kinase-3 beta (Homo sapiens, UniProt P49841). In words: Inhibition of His-tagged human GSK3b expressed in Sf21 cells at 50 uM; values are per cent of control.
Experiment [24] deals with T4, Ribosomal protein S6 kinase beta-1. Description: Inhibition of His-tagged human S6K1 expressed in Escherichia coli at 50 uM; values are per cent of control.
Experiment [25] deals with T5, Serine/threonine-protein kinase Chk1 (Homo sapiens). Description: Inhibition of His-tagged human CHK1 expressed in Escherichia coli at 50 uM; values are per cent of control.
Experiment [26] concerns the target MAP kinase-activated protein kinase 2 (Homo sapiens, UniProt P49137). Description: Inhibition of His-tagged human MAPKAPK2 expressed in Escherichia coli at 50 uM; values are per cent of control.
Experiment [27] deals with Protein kinase C alpha type (Homo sapiens, UniProt P17252). Description: Inhibition of His-tagged human PKCalpha expressed in Escherichia coli at 50 uM; values are per cent of control.
The target of experiment [28] is Mitogen-activated protein kinase 1 (Homo sapiens) (UniProt P28482). In words: Inhibition of His-tagged human MAPK2/ERK2 expressed in Escherichia coli at 50 uM; values are per cent of control.
Experiment [29] concerns the target Mitogen-activated protein kinase 14 (Homo sapiens) (UniProt Q16539). In words: Inhibition of His-tagged human SAPK2a/p38 expressed in Escherichia coli at 50 uM; values are per cent of control.
Experiment [30] has as its target Mitogen-activated protein kinase 11 (Homo sapiens) (UniProt Q15759). In words: Inhibition of His-tagged human SAPK2b/p38b2 expressed in Escherichia coli at 50 uM; values are per cent of control.
Experiment [31] addresses Mitogen-activated protein kinase 8 (Homo sapiens) (UniProt P45983). Description: Inhibition of His-tagged human JNK1a1/SAPK1c expressed in Escherichia coli at 50 uM; values are per cent of control.
Experiment [32] has as its target T7, Mitogen-activated protein kinase 12 (Homo sapiens) (UniProt P53778).
T7 sequence (whole entry): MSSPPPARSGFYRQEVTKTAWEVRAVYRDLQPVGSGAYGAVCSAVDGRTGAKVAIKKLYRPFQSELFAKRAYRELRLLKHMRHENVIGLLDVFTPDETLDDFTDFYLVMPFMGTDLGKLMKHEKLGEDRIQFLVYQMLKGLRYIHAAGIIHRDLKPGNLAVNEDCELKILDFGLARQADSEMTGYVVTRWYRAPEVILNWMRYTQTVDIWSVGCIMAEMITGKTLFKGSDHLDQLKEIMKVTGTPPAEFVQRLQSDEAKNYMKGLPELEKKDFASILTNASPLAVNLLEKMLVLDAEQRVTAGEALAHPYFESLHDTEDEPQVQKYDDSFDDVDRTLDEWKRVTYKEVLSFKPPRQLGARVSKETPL
Description: Inhibition of His-tagged human SAPK3/p38gamma expressed in Escherichia coli at 50 uM; values are per cent of control.

Experiment [33] addresses T1, Mitogen-activated protein kinase 13 (Homo sapiens). Description: Inhibition of His-tagged human SAPK4/p38delta expressed in Escherichia coli at 50 uM; values are per cent of control.

The values below come from ChEMBL document CHEMBL1240295, “Specificity and mechanism of action of some commonly used protein kinase inhibitors” (Biochem J, 2000).

For orientation: inhibition means the drop in the measured response relative to a control, in per cent.

T3 sequence (O75582 whole entry, looked up): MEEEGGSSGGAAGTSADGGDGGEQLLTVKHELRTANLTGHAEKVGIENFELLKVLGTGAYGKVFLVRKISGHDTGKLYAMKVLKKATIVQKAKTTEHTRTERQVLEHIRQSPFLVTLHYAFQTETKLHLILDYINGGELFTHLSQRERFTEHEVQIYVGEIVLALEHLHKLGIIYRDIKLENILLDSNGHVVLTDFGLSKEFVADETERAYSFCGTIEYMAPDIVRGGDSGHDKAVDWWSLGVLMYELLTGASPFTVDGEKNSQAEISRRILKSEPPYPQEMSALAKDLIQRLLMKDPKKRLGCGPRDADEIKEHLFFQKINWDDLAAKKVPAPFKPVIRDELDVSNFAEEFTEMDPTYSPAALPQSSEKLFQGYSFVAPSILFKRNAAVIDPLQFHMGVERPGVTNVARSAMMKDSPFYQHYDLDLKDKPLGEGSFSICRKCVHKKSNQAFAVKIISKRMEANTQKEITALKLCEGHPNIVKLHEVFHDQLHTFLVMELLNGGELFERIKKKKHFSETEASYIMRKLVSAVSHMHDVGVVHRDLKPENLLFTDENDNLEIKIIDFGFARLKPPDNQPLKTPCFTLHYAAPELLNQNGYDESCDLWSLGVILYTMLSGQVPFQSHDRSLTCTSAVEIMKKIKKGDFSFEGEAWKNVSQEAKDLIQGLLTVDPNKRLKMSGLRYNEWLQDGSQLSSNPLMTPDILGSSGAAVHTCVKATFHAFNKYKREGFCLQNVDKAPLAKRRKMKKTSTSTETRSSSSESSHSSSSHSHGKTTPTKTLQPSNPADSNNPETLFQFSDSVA
T4 sequence (P23443 whole entry, looked up): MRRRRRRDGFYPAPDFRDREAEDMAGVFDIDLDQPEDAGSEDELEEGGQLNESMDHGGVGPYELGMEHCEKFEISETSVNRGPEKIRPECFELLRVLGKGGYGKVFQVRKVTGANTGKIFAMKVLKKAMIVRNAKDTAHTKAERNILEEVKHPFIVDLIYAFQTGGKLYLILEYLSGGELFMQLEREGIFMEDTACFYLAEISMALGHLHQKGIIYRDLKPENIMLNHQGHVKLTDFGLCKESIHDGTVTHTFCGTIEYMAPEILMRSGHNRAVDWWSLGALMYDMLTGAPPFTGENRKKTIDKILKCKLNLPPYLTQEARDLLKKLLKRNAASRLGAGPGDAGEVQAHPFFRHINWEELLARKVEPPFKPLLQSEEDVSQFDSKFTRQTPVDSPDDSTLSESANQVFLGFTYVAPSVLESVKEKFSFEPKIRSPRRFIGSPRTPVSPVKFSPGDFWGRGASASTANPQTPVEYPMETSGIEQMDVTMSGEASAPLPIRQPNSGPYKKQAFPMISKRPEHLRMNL
Chain of Mitogen-activated protein kinase 8 (Homo sapiens) (P45983 whole entry): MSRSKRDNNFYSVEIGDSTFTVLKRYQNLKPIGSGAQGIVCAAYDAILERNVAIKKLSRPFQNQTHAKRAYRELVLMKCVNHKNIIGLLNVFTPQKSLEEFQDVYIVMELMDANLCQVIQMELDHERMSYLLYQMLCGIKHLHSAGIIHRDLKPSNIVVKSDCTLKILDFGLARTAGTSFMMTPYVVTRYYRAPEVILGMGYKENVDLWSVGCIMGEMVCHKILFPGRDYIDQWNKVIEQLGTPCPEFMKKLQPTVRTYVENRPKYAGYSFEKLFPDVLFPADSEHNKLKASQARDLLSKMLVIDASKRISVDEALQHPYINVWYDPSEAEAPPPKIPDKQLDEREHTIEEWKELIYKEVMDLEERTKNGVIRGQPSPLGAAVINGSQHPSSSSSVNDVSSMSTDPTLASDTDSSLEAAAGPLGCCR
Chain of Mitogen-activated protein kinase 14 (Homo sapiens) (Q16539 whole entry): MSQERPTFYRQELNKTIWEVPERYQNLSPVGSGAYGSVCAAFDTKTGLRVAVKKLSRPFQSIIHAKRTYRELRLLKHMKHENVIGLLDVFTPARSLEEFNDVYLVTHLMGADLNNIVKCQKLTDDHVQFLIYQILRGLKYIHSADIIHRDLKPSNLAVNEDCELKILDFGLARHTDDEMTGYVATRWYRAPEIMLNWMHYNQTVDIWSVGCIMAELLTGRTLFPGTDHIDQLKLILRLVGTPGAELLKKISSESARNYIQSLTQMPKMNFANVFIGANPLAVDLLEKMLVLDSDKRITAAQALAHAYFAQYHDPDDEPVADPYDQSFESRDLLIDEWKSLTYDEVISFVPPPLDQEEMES
Chain of MAP kinase-activated protein kinase 2 (P49137 whole entry, looked up): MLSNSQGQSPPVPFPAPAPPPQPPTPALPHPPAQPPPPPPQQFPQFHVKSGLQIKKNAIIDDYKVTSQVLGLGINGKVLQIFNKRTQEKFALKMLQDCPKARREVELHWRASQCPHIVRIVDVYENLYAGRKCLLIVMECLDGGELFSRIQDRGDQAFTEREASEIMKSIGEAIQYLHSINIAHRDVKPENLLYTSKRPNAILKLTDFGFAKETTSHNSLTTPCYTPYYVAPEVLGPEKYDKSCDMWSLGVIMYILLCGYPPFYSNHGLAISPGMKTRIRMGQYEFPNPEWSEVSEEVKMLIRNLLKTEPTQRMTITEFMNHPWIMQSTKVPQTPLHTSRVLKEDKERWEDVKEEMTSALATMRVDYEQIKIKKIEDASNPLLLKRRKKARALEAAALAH

Regarding `O=S(=O)(c1cccc2cnccc12)N1CCCNCC1`, the residual activity in experiment [1] worked out at 103%; in [2], 102%; in the experiment filed under Rattus norvegicus [4] it was 77%; in the experiment listed under Bos taurus [5], 35%; in experiment [7], 19%; in experiment [8], 32%. In addition, the residual activity is 82% in experiment [9], 97% in [10] and 96% in [11]. For the same molecule, the inhibition in experiment [3] was found to be 15%. The molecule further came in with a level, % of control in the experiment listed under Oryctolagus cuniculus [6] of 58%.

With `COc1cccc(-c2cc(=O)c3ccccc3o2)c1N`, the residual activity in [12] turned out to be 86%; in experiment [13], 80%; in the experiment listed under Rattus norvegicus [14], 97%; in the experiment filed under Bos taurus [15], 106%; in [18], 82%; in the experiment filed under Oryctolagus cuniculus [19], 89%. Further, the residual activity in experiment [20] turned out to be 90%; in experiment [21], 87%; in [22], 86%; in experiment [23] it was 101%; in experiment [24] it was 100%; in [25], 99%. In addition, the residual activity was 95% in experiment [26]; 93% in experiment [27]; 85% in experiment [28]; 85% in experiment [29]; 95% in experiment [30]; 111% in [31]. Also, the values for the residual activity in experiment [32] and in experiment [33] were 96% and 94%, respectively. Further, the figures for the level, % of control in the experiment filed under Oryctolagus cuniculus [16] and in the experiment filed under Oryctolagus cuniculus [17] were 87% and 93%, respectively.
